{
  "source": "patent EP2832223A1",
  "about": "“HERBICIDAL COMPOSITION” (Ishihara Sangyo Kaisha, Ltd., priority 2012, dated 2013)",
  "format_in_all_cases": "in vivo",
  "key": {"[1]": {"system": "rostrate sesbania (Sesbania rostrata Bremek. & Oberm.)", "assay": "Test Example 8: pot test, soil treatment, visual growth inhibition", "conditions": "soil, read-out: Growth inhibition rate (%) of rostrate sesbania Measured value", "method": "(§1) Upland field soil was put into a 1/300,000 ha pot, and seeds of rostrate sesbania (Sesbania rostrata Bremek. & Oberm.) were sown. On the next day, predetermined amounts of ONEHOPE NYUZAI (tradename), Click (tradename), Spectrum (tradename) and Clio (tradename) were diluted with water (in an amount corresponding to 1,000 L/ha) and applied for soil treatment by a small sprayer.\n(§2) On the 28th day after treatment, the state of growth of the rostrate sesbania was visually observed to determine the growth inhibition rate (%). The growth inhibition rate (%) (measured value) and the growth inhibition rate (%) calculated in the same manner as in the above Test Example 1 are shown in Table 8."}, "[2]": {"system": "velvetleaf (Abutilon theophrasti Medic.)", "assay": "Test Example 16: pot test, soil and foliar treatment, visual growth inhibition", "conditions": "read-out: Growth inhibition rate (%) of velvetleaf Measured value", "from_the_text": "(§3) Upland field soil was put into a 1/1,000,000 ha pot, and seeds of velvetleaf (Abutilon theophrasti Medic.) were sown. When the velvetleaf reached 4.0 to 4.3-leaf stage, seeds of velvetleaf were further sown in the same pot assuming conditions such that weeds would later grow. Three days later, predetermined amounts of ONEHOPE NYUZAI (tradename), Click (tradename), Callisto (tradename), Mikado (tradename), a wettable powder containing bicyclopyrone as an active ingredient and Clio (tradename) were diluted with water in an amount corresponding to 300 L/ha and applied for soil treatment and for foliar treatment by a small sprayer.\nas §2, with “29th” for “28th”, “velvetleaf” for “rostrate sesbania”, “16.” for “8.”"}, "[3]": {"system": "prickly sida (Sida spinosa L.)", "assay": "Test Example 10: pot test, soil treatment, visual growth inhibition", "conditions": "read-out: Growth inhibition rate (%) of prickly sida Measured value", "method": "as §1, with “prickly sida (Sida spinosa L.)” for “rostrate sesbania (Sesbania rostrata Bremek. & Oberm.)”, “Spectrum (tradename), Callisto” for “Spectrum”\nas §2, with “prickly sida” for “rostrate sesbania”, “10.” for “8.”"}, "[4]": {"system": "Japanese millet (Echinochloa utilis Ohwi et Yabuno)", "assay": "Test Example 5: pot test, soil treatment, visual growth inhibition", "conditions": "soil, read-out: Growth inhibition rate (%) of Japanese millet Measured value", "method": "(§4) Upland field soil was put into a 1/300,000 ha pot, and seeds of Japanese millet (Echinochloa utilis Ohwi et Yabuno) were sown. On the next day, predetermined amounts of ONEHOPE NYUZAI (tradename), Click (tradename) and SC formulation containing topramezone as an active ingredient (tradename: Clio, manufactured by BASF) were diluted with water (in an amount corresponding to 1,000 L/ha) and applied for soil treatment by a small sprayer.\nas §2, with “Japanese millet” for “rostrate sesbania”, “5.” for “8.”"}, "[5]": {"system": "velvetleaf (Abutilon theophrasti Medic.)", "assay": "Test Example 14: pot test, soil and foliar treatment, visual growth inhibition", "conditions": "read-out: Growth inhibition rate (%) of velvetleaf Measured value", "from_the_text": "as §3, with “On the next day,” for “Three days later,”\nas §2, with “31 st” for “28th”, “velvetleaf” for “rostrate sesbania”, “14.” for “8.”"}, "[6]": {"system": "wild oat (Avena fatua L.)", "assay": "Test Example 2: pot test, soil treatment, visual growth inhibition", "conditions": "50 g/ha, 28th day after treatment, read-out: Growth inhibition rate (%) of wild oat Measured value", "method": "as §4, with “1/500,000” for “1/300,000”, “wild oat (Avena fatua L.)” for “Japanese millet (Echinochloa utilis Ohwi et Yabuno)”, “mesotrione” for “topramezone”, “Callisto,” for “Clio,”, “Syngenta)” for “BASF)”\nas §2, with “wild oat” for “rostrate sesbania”, “2.” for “8.”"}, "[7]": {"system": "common cocklebur (Xanthium strumarium L.)", "assay": "Test Example 12: pot test, foliar treatment, visual growth inhibition", "conditions": "250 g/ha, foliar treatment at 4.2 to 4.3-leaf stage, 28th day after treatment, read-out: Growth inhibition rate (%) of common cocklebur Measured value", "method": "Upland field soil was put into a 1/1,000,000 ha pot, and seeds of common cocklebur (Xanthium strumarium L.) were sown. When the common cocklebur reached 4.2 to 4.3-leaf stage, predetermined amounts of ONEHOPE NYUZAI (tradename), Click (tradename) and water dispersible granules containing flufenacet as an active ingredient (tradename: Cadou, manufactured by Bayer CropScience) were diluted with water (in an amount corresponding to 1,000 L/ha) and applied for foliar treatment by a small sprayer.\nas §2, with “common cocklebur” for “rostrate sesbania”, “12.” for “8.”"}, "[8]": {"system": "guinea grass (Panicum maximum Jacq.)", "assay": "Test Example 15: pot test, soil and foliar treatment, visual growth inhibition", "conditions": "Megathyrsus maximus, 250 g/ha, 31st day after treatment, read-out: Growth inhibition rate (%) of guinea grass Measured value", "method": "Upland field soil was put into a 1/1,000,000 ha pot, and seeds of guinea grass (Panicum maximum Jacq.) were sown. When the guinea grass reached 5.2 to 6.0-leaf stage, seeds of guinea grass were further sown in the same pot assuming conditions such that weeds would later grow. On the next day, predetermined amounts of ONEHOPE NYUZAI (tradename), Click (tradename), Spectrum (tradename) and Cadou (tradename) were diluted with water in an amount corresponding to 300 L/ha and applied for soil treatment and for foliar treatment by a small sprayer.\nas §2, with “31 st” for “28th”, “guinea grass” for “rostrate sesbania”, “15.” for “8.”"}, "[9]": {"system": "sunn-hemp (Crotalaria juncea L.)", "assay": "Test Example 7: pot test, soil treatment, visual growth inhibition", "conditions": "soil, read-out: Growth inhibition rate (%) of sunn-hemp Measured value", "method": "(§5) Upland field soil was put into a 1/300,000 ha pot, and seeds of sunn-hemp (Crotalaria juncea L.) were sown. On the next day, predetermined amounts of ONEHOPE NYUZAI (tradename), Click (tradename), Mikado (tradename) and a wettable powder containing bicyclopyrone prepared in accordance with a conventional formulation method were diluted with water (in an amount corresponding to 1,000 L/ha) and applied for soil treatment by a small sprayer.\nas §2, with “sunn-hemp” for “rostrate sesbania”, “7.” for “8.”"}, "[10]": {"system": "annual ragweed (Ambrosia artemisiifolia L.)", "assay": "Test Example 11: pot test, soil treatment, visual growth inhibition", "conditions": "soil, read-out: Growth inhibition rate (%) of annual ragweed Measured value", "method": "as §5, with “annual ragweed (Ambrosia artemisiifolia” for “sunn-hemp (Crotalaria juncea”\nas §2, with “annual ragweed” for “rostrate sesbania”, “11.” for “8.”"}, "[11]": {"system": "green foxtail (Setaria viridis (L.) P.Beauv.)", "assay": "Test Example 3: pot test, soil treatment, visual growth inhibition", "conditions": "soil, read-out: Growth inhibition rate (%) of green foxtail Measured value", "method": "as §4, with “1/1,000,000” for “1/300,000”, “green foxtail (Setaria viridis (L.) P.Beauv.)” for “Japanese millet (Echinochloa utilis Ohwi et Yabuno)”, “sulcotrione” for “topramezone”, “Mikado,” for “Clio,”, “Bayer CropScience)” for “BASF)”\nas §2, with “27th” for “28th”, “green foxtail” for “rostrate sesbania”, “3.” for “8.”"}, "[12]": {"system": "Japanese millet (Echinochloa utilis Ohwi et Yabuno)", "assay": "Test Example 9: pot test, soil treatment, visual growth inhibition", "conditions": "soil, read-out: Growth inhibition rate (%) of Japanese millet Measured value", "method": "as §5, with “Japanese millet (Echinochloa utilis Ohwi et Yabuno)” for “sunn-hemp (Crotalaria juncea L.)”\nas §2, with “Japanese millet” for “rostrate sesbania”, “9.” for “8.”"}, "[13]": {"system": "korean lespedeza (Kummerowia stipulacea (Maxim.) Makino)", "assay": "Test Example 6: pot test, soil treatment, visual growth inhibition", "conditions": "soil, read-out: Growth inhibition rate (%) of korean lespedeza Measured value", "method": "as §5, with “korean lespedeza (Kummerowia stipulacea (Maxim.) Makino)” for “sunn-hemp (Crotalaria juncea L.)”\nas §2, with “14th” for “28th”, “korean lespedeza” for “rostrate sesbania”, “6.” for “8.”"}},
  "data": [
    {"smiles": "Cc1c(C(=O)c2cnn(C)c2O)ccc(S(C)(=O)=O)c1C1=NOCC1", "note": "[Topramezone, [3-(4,5-dihydro-1,2-oxazol-3-yl)-4-mesyl-o-tolyl](5-hydroxy-1-methylpyrazol-4-yl)methanone]", "values": [
      {"measurement": "inhibition at 100 g/ha", "setting": "[1]", "value": 80, "unit": "%"},
      {"measurement": "inhibition at 20 g/ha", "setting": "[2]", "value": 50, "unit": "%"},
      {"measurement": "inhibition at 10 g/ha", "setting": "[3]; soil", "value": 0, "unit": "%"},
      {"measurement": "inhibition at 40 g/ha", "setting": "[4]", "value": 30, "unit": "%"},
      {"measurement": "inhibition at 10 g/ha", "setting": "[5]", "value": 8, "unit": "%"},
      {"measurement": "inhibition at 60 g/ha", "setting": "[5]", "value": 65, "unit": "%"}
    ]},
    {"smiles": "CS(=O)(=O)c1ccc(C(=O)C2C(=O)CCCC2=O)c([N+](=O)[O-])c1", "note": "[Mesotrione, 2-(4-mesyl-2-nitrobenzoyl)cyclohexane-1,3-dione]", "values": [
      {"measurement": "inhibition at 75 g/ha", "setting": "[2]; 75 g/ha, soil treatment and foliar treatment, 29th day after treatment", "value": 89, "unit": "%"},
      {"measurement": "inhibition at 25 g/ha", "setting": "[3]; 25 g/ha, soil treatment, 28th day after treatment", "value": 25, "unit": "%"},
      {"measurement": "inhibition at 50 g/ha", "setting": "[5]; 50 g/ha, soil treatment and foliar treatment, 31st day after treatment", "value": 91, "unit": "%"},
      {"measurement": "inhibition at 120 g/ha", "setting": "[5]; 120 g/ha, soil treatment and foliar treatment, 31st day after treatment", "value": 93, "unit": "%"},
      {"measurement": "inhibition at 50 g/ha", "setting": "[6]", "value": 0, "unit": "%"}
    ]},
    {"smiles": "CC(C)N(C(=O)COc1nnc(C(F)(F)F)s1)c1ccc(F)cc1", "note": "[Flufenacet, 4'-fluoro-N-isopropyl-2-[5-(trifluoromethyl)-1,3,4-thidiazol-2-yloxy]acetanilide]", "values": [
      {"measurement": "inhibition at 250 g/ha", "setting": "[7]", "value": 0, "unit": "%"},
      {"measurement": "inhibition at 250 g/ha", "setting": "[8]", "value": 50, "unit": "%"}
    ]},
    {"smiles": "CS(=O)(=O)c1ccc(C(=O)C2C(=O)CCCC2=O)c(Cl)c1", "note": "[Sulcotrione, 2-(2-chloro-4-mesylbenzoyl)cyclohexane-1,3-dione]", "values": [
      {"measurement": "inhibition at 200 g/ha", "setting": "[2]", "value": 88, "unit": "%"},
      {"measurement": "inhibition at 50 g/ha", "setting": "[9]", "value": 10, "unit": "%"},
      {"measurement": "inhibition at 2000 g/ha", "setting": "[10]", "value": 85, "unit": "%"},
      {"measurement": "inhibition at 300 g/ha", "setting": "[11]", "value": 5, "unit": "%"},
      {"measurement": "inhibition at 50 g/ha", "setting": "[12]", "value": 20, "unit": "%"},
      {"measurement": "inhibition at 100 g/ha", "setting": "[5]", "value": 88, "unit": "%"},
      {"measurement": "inhibition at 300 g/ha", "setting": "[5]", "value": 90, "unit": "%"},
      {"measurement": "inhibition at 1000 g/ha", "setting": "[13]", "value": 15, "unit": "%"}
    ]}
  ]
}
